Literature values as cited in patent US20120077687A1, “PROGNOSTIC AND PREDICTIVE GENE SIGNATURE FOR NON-SMALL CELL LUNG CANCER AND ADJUVANT CHEMOTHERAPY” (priority 2010, published 2012).
Like-named read-outs stand apart in the source and are kept apart here.

Assays:
[1] = system: non-small cell lung cancer (NSCLC) patients; details: for HR (survival): LACE meta-analysis
[2] = system: stage IB NSCLC patients; details: 344 stage IB patients, chemotherapy vs observation

| Compound | 5-year survival advantage conferred by adjuvant chemotherapy ([1]; ANITA trial, 840 stage IB-IIIA patients) [%] | 5-year survival advantage conferred by adjuvant chemotherapy ([1]; IALT, 1,867 stage I-III patients) [%] | absolute survival advantage at 5-year ([1]; LACE meta-analysis of 5 cisplatin-based trials) [%] | HR (survival) ([1]; all patients, 95% CI 0.82-0.96, p=0.004) | HR (survival) ([1]; stage IA patients, 95% CI 0.96-2.09, detriment suggested) | HR (survival) ([1]; stage IB patients, 95% CI 0.78-1.10, no significant benefit) | 5-year survival advantage conferred by adjuvant chemotherapy ([1]; NCIC CTG BR.10 Trial, 483 stage IB-II patients) [%] | HR, disease-free survival ([2]; p=0.065) | HR, overall survival ([2]; p=0.12) |
| --- | --- | --- | --- | --- | --- | --- | --- | --- | --- |
| N.N.[Cl][Pt][Cl] [cisplatin] | 9 | 4 | 5.3 | 0.89 | 1.41 | 0.92 | 15 | – | – |
| carboplatin and paclitaxel | – | – | – | – | – | – | – | 0.80 | 0.83 |
